# Assay results reported in patent US9522935B2, “Commands and method of treating cancer via RHO pathway” (priority 2013, dated 2016).
# Assays:
# [1] = tested on: non-small lung cancer cell line A549; experiment: MTT assay, compounds related to LD030 on A549 cells; assay type: cell-based; settings: for Effects on A549 Cells (inhibitory percentage) / inhibition at 0.1 µM / inhibition at 1 µM / inhibition at 10 µM / inhibition at 100 µM: 48 hours; for inhibition at 0.1 µM / inhibition at 1 µM / inhibition at 10 µM / inhibition at 100 µM: Homo sapiens, A549, read-out: Effects on A549 Cells (inhibitory percentage)
# Protocol: (§1) MTT assay was used to detect cell viability after being treated with different compounds of the present invention related to LD030. The cell lines treated were on non-small lung cancer cell line A549, HepG2 cells and Panc1 cells.
# (§2) MTT preservation solution preparation: 0.5 g MTT was dissolved in 100 ml of phosphate buffer solution (PBS), and bacteria contaminates were removed with a 0.22 μm membrane filter to obtain 0.5% MTT solution, which was stored in the dark at −20° C.
# (§3) MTT working solution preparation: MTT preservation solution was diluted 10 times with sterile PBS to obtain MTT working solution.
# (§4) 1640 complete medium preparation: 1640 base medium was added with an amount of fetal bovine serum (FBS) so that the medium contains 10% FBS by volume. Then an amount of double-antibody (i.e., penicillin and streptomycin) was added to make final concentration of penicillin at 100 units/ml and streptomycin at 100 ug/ml.
# (§5) The experimental procedure is as follows:
# (§6) (1) Take trypsin digested logarithmic phase cells and adjust the concentration of the cell suspension to 6×10^4 cell/ml, and then add 100 ul suspension of the cells under the test to each well on a 96-well plate and adjusted to a density of 6000 cells/well. The edge orifice is filled with sterile PBS.
# (§7) (2) Placed the 96-well plate into a 37° C. incubator with 5% CO2 and incubate it overnight.
# (§8) (3) Dissolve the test compounds in 200 ul DMSO to get a 5 mg/ml solution and dilute it to get 100 uM, 10 uM, 1 uM and 0.1 uM solutions. Add 100 ul of a solution to each of three repeat wells. Set a control well which has cells but without the compound of the present invention and a blank cell which contains no cells.
# (§9) (4) Put the 96-well plate into a 37° C. incubator with 5% CO2 and incubate it for 48 hours. Examine the cells daily under a microscope.
# (§10) (5) After being cultured for 48 hours, centrifuge and discard the culture liquid. Add 100 ul MTT working solution to each well, and continue incubating for 4 h.
# (§11) (6) Terminate the culture, and carefully remove the culture medium. Then add 100 ul DMSO to each well and shake it at a low speed in a shaker for 10 min to make all crystals fully dissolved. The absorbance value of each well was measured by an enzyme-linked immunosorbent detector at the OD570 nm, and the inhibition rate of the different compounds with different concentration on cell growth can be obtained.
# HepG2 cells = experiment: MTT assay, compounds related to LD030 on HepG2 cells; assay type: cell-based, human; settings: 48 hours; for inhibition at 0.1 µM / inhibition at 1 µM / inhibition at 10 µM / inhibition at 100 µM: Homo sapiens, HepG2, read-out: Effects on HepG2 Cells (inhibitory percentage)
# Protocol: as §1, §2, §3, §4, §5, §6, §7, §8, §9, §10, §11
# Panc1 cells = experiment: MTT assay, compounds related to LD030 on Panc1 cells; assay type: cell-based, human; settings: 48 hours; for inhibition at 0.1 µM / inhibition at 1 µM / inhibition at 10 µM / inhibition at 100 µM: Homo sapiens, PANC-1, read-out: Effects on Panc1 Cells (inhibitory percentage)
# Protocol: as §1, §2, §3, §4, §5, §6, §7, §8, §9, §10, §11
# [2] = tested on: pancreatic cancer cell lines; experiment: Nude mouse model of pancreatic cancer (xenograft), tumor size; assay type: in vivo, NOD/SCID mice; settings: 43 days
# Protocol: Two strains of pancreatic cancer cell lines were selected to be grafted to nonobese diabetic/severe combined immunodeficient (NOD/SCID) mice, and the tumor was inoculated in mouse ventral sides. About two weeks, they were used as a nude mouse model of pancreatic cancer. […] Each of the above groups. The treatment continued for 43 days (gemcitabine alone group 2 times a week; other groups 3 times a week), and then tumor size was recorded as shown in FIG. 16. […] Further experiments were conducted to study the effects of the combinational use of LD030 with gemcitabine as compared being used alone on tumor inhibition. Four treatment groups were set up: (a) blank control, (2) gemcitabine (25 mg/kg/time, 2 times a week), (3) LD030 (0.5 mg/kg/time, 3 times a week), (4) LD030 (0.5 mg/kg/time, 3 times a week) together with gemcitabine (25 mg/kg/time, 2 times a week).
SMILES,inhibition at 0.1 µM ([1]; 0.1 μM),inhibition at 1 µM ([1]; 1 μM),inhibition at 10 µM ([1]; 10 μM),inhibition at 100 µM ([1]; 100 μM),inhibition at 0.1 µM (Panc1 cells; 0.1 μM),inhibition at 1 µM (Panc1 cells; 1 μM),inhibition at 10 µM (Panc1 cells; 10 μM),inhibition at 100 µM (Panc1 cells; 100 μM),inhibition at 0.1 µM (HepG2 cells; 0.1 μM),inhibition at 1 µM (HepG2 cells; 1 μM),inhibition at 10 µM (HepG2 cells; 10 μM),inhibition at 100 µM (HepG2 cells; 100 μM),other results
CC(=O)OC(CCC(C)C1CC[C@@]2(C)C34CC[C@H]5C(C)(C)[C@@H](OC(C)=O)CC[C@]5(C)C3(CC[C@]12C)O4)C(C)(C)OC(C)=O (some centres unmarked) [LD023],,,,,,,,,,,,,Effects on A549 Cells (inhibitory percentage) ([1]; 0.1 μM): 8.01%; Effects on A549 Cells (inhibitory percentage) ([1]; 1 μM): 8.30%; Effects on A549 Cells (inhibitory percentage) ([1]; 10 μM): 6.11%; Effects on A549 Cells (inhibitory percentage) ([1]; 100 μM): 12.70%; Effects on HepG2 Cells (inhibitory percentage) (HepG2 cells; 0.1 μM): 26.53%; Effects on HepG2 Cells (inhibitory percentage) (HepG2 cells; 1 μM): 27.64%; Effects on HepG2 Cells (inhibitory percentage) (HepG2 cells; 10 μM): 19.13%; Effects on HepG2 Cells (inhibitory percentage) (HepG2 cells; 100 μM): 23.00%; Effects on Panc1 Cells (inhibitory percentage) (Panc1 cells; 0.1 μM): −5.92%; Effects on Panc1 Cells (inhibitory percentage) (Panc1 cells; 1 μM): −1.12%; Effects on Panc1 Cells (inhibitory percentage) (Panc1 cells; 10 μM): −2.56%; Effects on Panc1 Cells (inhibitory percentage) (Panc1 cells; 100 μM): 25.26%
CC(=O)O[C@H]1CC[C@@]2(C)[C@@H](CCC34OC32CC[C@]2(C)C(C(C)CCC(O)C(C)(C)O)CC[C@@]42C)C1(C)C (some centres unmarked) [LD027],-1.4%,-4.98%,12.9%,58.6%,2.21%,10.1%,16.7%,28.7%,,,,,
CC(C)=CCC[C@@H](C)[C@H]1CC[C@@]2(C)C3=C(CC[C@]12C)[C@@]1(C)CCC(=O)C(C)(C)[C@@H]1CC3 [LD 012],,,,,,,,,,,,,Effects on A549 Cells (inhibitory percentage) ([1]; 0.1 μM): 1.31%; Effects on A549 Cells (inhibitory percentage) ([1]; 1 μM): 28.04%; Effects on A549 Cells (inhibitory percentage) ([1]; 10 μM): 39.34%; Effects on A549 Cells (inhibitory percentage) ([1]; 100 μM): 91.76%; inhibition rate on A549 ([1]; concentration not given): more than 90%; Effects on HepG2 Cells (inhibitory percentage) (HepG2 cells; 0.1 μM): 10.53%; Effects on HepG2 Cells (inhibitory percentage) (HepG2 cells; 1 μM): −15.82%; Effects on HepG2 Cells (inhibitory percentage) (HepG2 cells; 10 μM): −1.79%; Effects on HepG2 Cells (inhibitory percentage) (HepG2 cells; 100 μM): 47.72%; Effects on Panc1 Cells (inhibitory percentage) (Panc1 cells; 0.1 μM): 5.68%; Effects on Panc1 Cells (inhibitory percentage) (Panc1 cells; 1 μM): 5.68%; Effects on Panc1 Cells (inhibitory percentage) (Panc1 cells; 10 μM): 10.20%; Effects on Panc1 Cells (inhibitory percentage) (Panc1 cells; 100 μM): 39.54%
CC(=O)OC(CCC(C)C1CC[C@@]2(C)C3=C(CC[C@]12C)[C@@]1(C)CCC(=O)C(C)(C)[C@@H]1CC3)C(C)(C)OC(C)=O (some centres unmarked) [LD 014],21.3%,9.46%,3.02%,34.6%,-5.26%,-3.05%,3.89%,24.1%,0.64%,-20.7%,2.93%,61.4%,
CC(=O)O[C@H]1CC[C@]2(C)C3=C(CC[C@H]2C1(C)C)[C@]1(C)CCC(C(C)CCC(O)C(C)(C)O)[C@@]1(C)CC3 (some centres unmarked) [LD 021],3.13%,1.31%,1.53%,45.5%,-12.6%,-4.96%,2.16%,48.8%,12.7%,13.1%,12.7%,24.6%,
CC(=O)OC(CCC(C)C1CC[C@@]2(C)C3=C(CC[C@]12C)[C@@]1(C)CC[C@H](OC(C)=O)C(C)(C)[C@@H]1CC3)C(C)(C)OC(C)=O (some centres unmarked) [LD 022],,,,,,,,,,,,,Effects on A549 Cells (inhibitory percentage) ([1]; 0.1 μM): 4.73%; Effects on A549 Cells (inhibitory percentage) ([1]; 1 μM): 8.99%; Effects on A549 Cells (inhibitory percentage) ([1]; 10 μM): 6.92%; Effects on A549 Cells (inhibitory percentage) ([1]; 100 μM): 35.89%; Effects on HepG2 Cells (inhibitory percentage) (HepG2 cells; 0.1 μM): 20.67%; Effects on HepG2 Cells (inhibitory percentage) (HepG2 cells; 1 μM): 31.18%; Effects on HepG2 Cells (inhibitory percentage) (HepG2 cells; 10 μM): 24.88%; Effects on HepG2 Cells (inhibitory percentage) (HepG2 cells; 100 μM): 24.54%; Effects on Panc1 Cells (inhibitory percentage) (Panc1 cells; 0.1 μM): −6.95%; Effects on Panc1 Cells (inhibitory percentage) (Panc1 cells; 1 μM): −5.28%; Effects on Panc1 Cells (inhibitory percentage) (Panc1 cells; 10 μM): −2.48%; Effects on Panc1 Cells (inhibitory percentage) (Panc1 cells; 100 μM): −6.24%
CC(CCC(O)C(C)(C)O)C1CC[C@@]2(C)C34CC[C@H]5C(C)(C)[C@@H](O)CC[C@]5(C)C3(CC[C@]12C)O4 (some centres unmarked) [LD 024],1.38%,6.04%,-0.22%,34.6%,-7.19%,-8.39%,-13%,6.95%,22%,14.3%,5.86%,2.1%,
CC(CCC(=O)C(C)(C)O)C1CC[C@@]2(C)C34CC[C@H]5C(C)(C)C(=O)CC[C@]5(C)C3(CC[C@]12C)O4 (some centres unmarked) [LD 025],25.2%,1.71%,0.51%,16.9%,-16.5%,-12.8%,-9.57%,-16%,-1.15%,-19.1%,-1.79%,20.5%,
CC(=O)O[C@H]1CC[C@]2(C)C3=C(CC[C@H]2C1(C)C)[C@]1(C)CCC(C(C)CCC2OC2(C)C)[C@@]1(C)CC3 (some centres unmarked) [LD 026-1],21.8%,6.66%,8.3%,39.8%,-2.84%,9.46%,8.83%,34.4%,-3.32%,-0.13%,12.7%,58.1%,
CC(=O)O[C@H]1CC[C@@]2(C)[C@@H](CCC34OC32CC[C@]2(C)C(C(C)CCC3OC3(C)C)CC[C@@]42C)C1(C)C (some centres unmarked) [LD 026-2],2.51%,6.88%,-2.33%,33%,8.79%,7.59%,14.6%,21.5%,20.3%,32.8%,20.8%,33.9%,
CC(=O)O[C@H]1CC[C@]2(C)C3CC[C@]4(C)C(C(C)CCC(O)C(C)(C)O)CC[C@@]4(C)C3CC[C@H]2C1(C)C (some centres unmarked) [LD 028],3.24%,10%,-1.75%,29.2%,-9.19%,-0.48%,-0.4%,0.16%,29.4%,37.4%,67.8%,45.8%,
"Nc1ccn([C@@H]2O[C@H](CO)[C@@H](O)C2(F)F)c(=O)n1 [gemcitabine, reference compound]",,,,,,,,,,,,,"tumor volume reduced ([2]; 25 mg/kg/time gemcitabine, FIG. 15): 37%; tumor size reduced ([2]; gemcitabine 25 mg/kg/time, 2 times a week, FIG. 17): 37%"
